US20210120812A1, “FRESHNESS-RETENTIVE FILM” (MITSUI CHEMICALS TOHCELLO, INC., priority 2013, published 2021)

Tested on: Escherichia coli (E. coli)
Assay: Antibacterial test according to JIS Z2801 using E. coli (film surface not wiped with alcohol)
Type: cell-based
Details: judgement in the text
Protocol: For example, in an antibacterial test according to JIS Z2801, a predetermined amount of Escherichia coli (E. coli) or the like is added to a 1/500 nutrient broth. The nutrient broth is dropped onto the surface of the film of a 4 cm square, and is covered with a polyethylene film. The sample is placed at 35° C. After 24 hours, the surface of the freshness-retentive film is washed to recover the nutrient broth. The number of bacterial cells is measured with a nutrient agar. In this test method, alkyldiethanolamine should be diffused in the nutrient broth (solution) in a concentration of 30 ppm or more.
An antibacterial test was performed using Escherichia coli (E. coli) according to JIS Z2801. To keep the state of the surface of the freshness-retentive film, the surface thereof was not wiped with alcohol.
Predetermined amounts of Escherichia coli (E. coli), Staphylococcus aureus, Salmonella, and Vibrio parahaemolyticus (broth (0.4 cc) used in a JIS test) were added to a 1/500 nutrient broth. The nutrient broth was dropped onto the surface of a freshness-retentive film of a 4 cm square, and was covered with a polyethylene film. The film was placed at 35° C., and after 24 hours, the surface of the freshness-retentive film was washed. The washing liquid containing the nutrient broth was recovered, and was cultured on a nutrient agar. The number of colonies was counted.
Since the number of bacterial cells is difficult to count under a microscope, the number of colonies was visually counted. The number of colonies per gram (g) was defined as the number of living bacterial cells CFU (colony forming unit) (unit: [colonies/g]). A sample sandwiched between two polyethylene films was used as a control (Control) for comparison. In Tables, the averages at n=1 to 3 are also shown. If a fluctuation in the measured values is 10 times or more, the average is not calculated according to the JIS specification.
An antibacterial test was performed in the same manner as in Experiment 1.
An antibacterial test was performed in the same manner as in Experiment 1. […]

| Molecule | antibacterial characteristics against E. coli (in words) |
| --- | --- |
| CCCCCCCCCCCCCCCCCCN(CCO)CCO [stearyldiethanolamine] | significantly superior to those of stearyldiethanolamine monostearate |
| diglycerol monopalmitate | does not inhibit the antibacterial activity of stearyldiethanolamine |
| CCCCCCCCCCCCCCCCCC(=O)OCC(O)CO (stereo not drawn) [glycerol monostearate] | inhibits the antibacterial activity of stearyldiethanolamine |
